Source: the OligoGym collection
HELM strings list units from the 5' end as sugar, base in round brackets, then linkage (d deoxyribose, r ribose, m 2'-O-methyl, p phosphodiester). Strings are as the collection lists them; they lack the last nucleoside at the 3' end of the tested compound. [moe] = 2'-O-(2-methoxyethyl) (MOE); [sp] = phosphorothioate linkage; [m5C] = 5-methylcytosine

Each substance was assayed against APP (assay: mouse, dose not given). Settings: ASO.

3 h FOB score, 1 score 0-7:
RNA1{[moe](T)[sp].[moe]([m5C])p.[moe]([m5C])p.[moe](G)p.[moe](A)[sp].d(G)[sp].d(T)[sp].d([m5C])[sp].d(A)[sp].d(T)[sp].d([m5C])[sp].d([m5C])[sp].d(T)[sp].d([m5C])[sp].d([m5C])[sp].[moe](T)p.[moe]([m5C])p.[moe]([m5C])[sp].[moe](G)}$$$$ (last 3' nucleoside missing), RNA1{[moe]([m5C])[sp].[moe](T)[sp].[moe](T)p.[moe]([m5C])p.[moe]([m5C])[sp].d([m5C])[sp].d(A)[sp].d(T)[sp].d(T)[sp].d([m5C])[sp].d(T)[sp].d([m5C])[sp].d(T)[sp].d([m5C])[sp].d(A)[sp].[moe](T)p.[moe](G)p.[moe](A)[sp].[moe]([m5C])}$$$$ (last 3' nucleoside missing), RNA1{[moe](G)[sp].[moe](T)p.[moe](T)p.[moe](G)p.[moe](T)[sp].d(A)[sp].d(G)[sp].d(G)[sp].d(A)[sp].d(A)[sp].d([m5C])[sp].d(T)[sp].d([m5C])[sp].d(G)[sp].d(A)[sp].[moe](A)p.[moe]([m5C])p.[moe]([m5C])[sp].[moe](A)}$$$$ (last 3' nucleoside missing), RNA1{[moe](A)[sp].[moe]([m5C])p.[moe](T)p.[moe](T)p.[moe](A)[sp].d([m5C])[sp].d(A)[sp].d(A)[sp].d(A)[sp].d([m5C])[sp].d(T)[sp].d([m5C])[sp].d(A)[sp].d([m5C])[sp].d([m5C])[sp].[moe](A)p.[moe](A)p.[moe]([m5C])[sp].[moe](T)}$$$$ (last 3' nucleoside missing)

3 h FOB score, 2 score 0-7:
RNA1{[moe](G)[sp].[moe](A)p.[moe](G)p.[moe](T)p.[moe](A)[sp].d(A)[sp].d(A)[sp].d(T)[sp].d([m5C])[sp].d(A)[sp].d(T)[sp].d(A)[sp].d(A)[sp].d(A)[sp].d(A)[sp].[moe]([m5C])p.[moe](G)p.[moe](G)[sp].[moe](G)}$$$$ (last 3' nucleoside missing)

3 h FOB score, 2.33 score 0-7:
RNA1{[moe](G)[sp].[moe](A)p.[moe]([m5C])p.[moe](A)p.[moe]([m5C])[sp].d(T)[sp].d(T)[sp].d(T)[sp].d(T)[sp].d(A)[sp].d(T)[sp].d([m5C])[sp].d(T)[sp].d(T)[sp].d(G)[sp].[moe]([m5C])p.[moe](A)p.[moe]([m5C])[sp].[moe](T)}$$$$ (last 3' nucleoside missing)

3 h FOB score, 0 score 0-7:
RNA1{[moe](G)[sp].[moe](A)p.[moe]([m5C])p.[moe](A)p.[moe](T)[sp].d([m5C])[sp].d(A)[sp].d(T)[sp].d(T)[sp].d(T)[sp].d(A)[sp].d(A)[sp].d(T)[sp].d(T)[sp].d(T)[sp].[moe](G)p.[moe](T)p.[moe](G)[sp].[moe]([m5C])}$$$$ (last 3' nucleoside missing), RNA1{[moe](G)[sp].[moe](A)p.[moe](T)p.[moe]([m5C])p.[moe](T)p.[moe](G)p.d(A)[sp].d(A)[sp].d(T)[sp].d([m5C])[sp].d([m5C])[sp].d([m5C])[sp].d(A)[sp].d([m5C])[sp].d(T)[sp].d(T)[sp].[moe]([m5C])p.[moe]([m5C])[sp].[moe]([m5C])}$$$$ (last 3' nucleoside missing), RNA1{[moe](G)[sp].[moe]([m5C])p.[moe](A)p.[moe](T)p.[moe](G)[sp].d([m5C])[sp].d([m5C])[sp].d(T)[sp].d(T)[sp].d([m5C])[sp].d([m5C])[sp].d(T)[sp].d([m5C])[sp].d(A)[sp].d(T)[sp].[moe]([m5C])p.[moe]([m5C])p.[moe]([m5C])[sp].[moe]([m5C])}$$$$ (last 3' nucleoside missing), RNA1{[moe](T)[sp].[moe](T)p.[moe](G)p.[moe](G)p.[moe](A)[sp].d(T)[sp].d(T)[sp].d([m5C])[sp].d(A)[sp].d(T)[sp].d([m5C])[sp].d(T)[sp].d([m5C])[sp].d([m5C])[sp].d(A)[sp].[moe](T)p.[moe](A)p.[moe]([m5C])[sp].[moe](T)}$$$$ (last 3' nucleoside missing), RNA1{[moe](T)[sp].[moe](G)p.[moe](G)p.[moe](T)p.[moe](T)[sp].d(T)[sp].d(A)[sp].d([m5C])[sp].d([m5C])[sp].d(T)[sp].d(T)[sp].d(T)[sp].d(A)[sp].d(A)[sp].d([m5C])[sp].[moe](A)p.[moe](T)p.[moe](T)[sp].[moe]([m5C])}$$$$ (last 3' nucleoside missing), RNA1{[moe](G)[sp].[moe](T)p.[moe](G)p.[moe](T)p.[moe]([m5C])[sp].d(A)[sp].d(T)[sp].d(A)[sp].d(A)[sp].d([m5C])[sp].d(A)[sp].d(T)[sp].d(T)[sp].d(T)[sp].d(A)[sp].[moe]([m5C])p.[moe](T)p.[moe]([m5C])[sp].[moe](A)}$$$$ (last 3' nucleoside missing), RNA1{[moe](A)[sp].[moe](A)p.[moe]([m5C])p.[moe](T)p.[moe]([m5C])[sp].d(G)[sp].d(A)[sp].d(A)[sp].d([m5C])[sp].d([m5C])[sp].d(A)[sp].d([m5C])[sp].d([m5C])[sp].d(T)[sp].d([m5C])[sp].[moe](T)p.[moe](T)p.[moe]([m5C])[sp].[moe]([m5C])}$$$$ (last 3' nucleoside missing), RNA1{[moe](G)[sp].[moe](A)p.[moe](A)p.[moe](G)p.[moe]([m5C])[sp].d(T)[sp].d(T)[sp].d(A)[sp].d([m5C])[sp].d(A)[sp].d(T)[sp].d([m5C])[sp].d(A)[sp].d(T)[sp].d(T)[sp].[moe](T)p.[moe](T)p.[moe]([m5C])[sp].[moe](T)}$$$$ (last 3' nucleoside missing), RNA1{[moe](T)[sp].[moe](T)p.[moe](T)p.[moe](A)p.[moe]([m5C])[sp].d([m5C])[sp].d(T)[sp].d(T)[sp].d(T)[sp].d(A)[sp].d(A)[sp].d([m5C])[sp].d(A)[sp].d(T)[sp].d(T)[sp].[moe]([m5C])p.[moe]([m5C])p.[moe](T)[sp].[moe]([m5C])}$$$$ (last 3' nucleoside missing), RNA1{[moe]([m5C])[sp].[moe]([m5C])p.[moe](A)p.[moe](A)p.[moe](G)[sp].d(T)[sp].d(A)[sp].d(T)[sp].d(T)[sp].d(T)[sp].d(T)[sp].d([m5C])[sp].d([m5C])[sp].d(T)[sp].d(G)[sp].[moe]([m5C])p.[moe](A)p.[moe](T)[sp].[moe]([m5C])}$$$$ (last 3' nucleoside missing), RNA1{[moe](A)[sp].[moe]([m5C])p.[moe](A)p.[moe](T)p.[moe](T)[sp].d(A)[sp].d(T)[sp].d(T)[sp].d([m5C])[sp].d(T)[sp].d(A)[sp].d(T)[sp].d(A)[sp].d(A)[sp].d(A)[sp].[moe](T)p.[moe](G)p.[moe](G)[sp].[moe](A)}$$$$ (last 3' nucleoside missing), RNA1{[moe](G)[sp].[moe](T)p.[moe](A)p.[moe]([m5C])p.[moe](A)[sp].d(T)[sp].d(A)[sp].d(T)[sp].d(T)[sp].d([m5C])[sp].d(A)[sp].d(T)[sp].d(T)[sp].d([m5C])[sp].d(A)[sp].[moe](A)p.[moe](T)p.[moe]([m5C])[sp].[moe](T)}$$$$ (last 3' nucleoside missing), RNA1{[moe](G)[sp].[moe]([m5C])p.[moe](A)p.[moe](T)p.[moe]([m5C])[sp].d(T)[sp].d(T)[sp].d(T)[sp].d(T)[sp].d(A)[sp].d([m5C])[sp].d(T)[sp].d(A)[sp].d(T)[sp].d([m5C])[sp].[moe](T)p.[moe](G)p.[moe]([m5C])[sp].[moe]([m5C])}$$$$ (last 3' nucleoside missing), RNA1{[moe](G)[sp].[moe](A)p.[moe](T)p.[moe]([m5C])p.[moe](T)[sp].d(G)[sp].d(A)[sp].d(A)[sp].d(T)[sp].d([m5C])[sp].d([m5C])[sp].d([m5C])[sp].d(A)[sp].d([m5C])[sp].d(T)[sp].[moe](T)p.[moe]([m5C])p.[moe]([m5C])[sp].[moe]([m5C])}$$$$ (last 3' nucleoside missing), RNA1{[moe](T)[sp].[moe](A)p.[moe](G)p.[moe](T)p.[moe](A)[sp].d([m5C])[sp].d(A)[sp].d(T)[sp].d(T)[sp].d([m5C])[sp].d([m5C])[sp].d(A)[sp].d([m5C])[sp].d(T)[sp].d(T)[sp].[moe](T)p.[moe](G)p.[moe](T)[sp].[moe](T)}$$$$ (last 3' nucleoside missing)

3 h FOB score, 0.375 score 0-7:
RNA1{[moe](G)[sp].[moe](G)p.[moe]([m5C])p.[moe](A)p.[moe](T)[sp].d([m5C])[sp].d(A)[sp].d([m5C])[sp].d(T)[sp].d(T)[sp].d(A)[sp].d([m5C])[sp].d(A)[sp].d(A)[sp].d(A)[sp].[moe]([m5C])p.[moe](T)p.[moe]([m5C])[sp].[moe](A)}$$$$ (last 3' nucleoside missing)

3 h FOB score, 0.33 score 0-7:
RNA1{[moe](T)[sp].[moe](G)p.[moe](G)p.[moe](T)p.[moe](A)[sp].d([m5C])[sp].d(T)[sp].d(A)[sp].d(T)[sp].d(T)[sp].d(T)[sp].d([m5C])[sp].d(T)[sp].d(A)[sp].d(A)[sp].[moe](G)p.[moe](G)p.[moe](A)[sp].[moe](A)}$$$$ (last 3' nucleoside missing), RNA1{[moe](A)[sp].[moe](G)p.[moe](G)p.[moe](T)p.[moe]([m5C])[sp].d(T)[sp].d([m5C])[sp].d(T)[sp].d(A)[sp].d(T)[sp].d(A)[sp].d(T)[sp].d(T)[sp].d(T)[sp].d(T)[sp].[moe](G)p.[moe](G)p.[moe](T)[sp].[moe]([m5C])}$$$$ (last 3' nucleoside missing), RNA1{[moe](T)[sp].[moe](T)p.[moe](A)p.[moe]([m5C])p.[moe](A)[sp].d(T)[sp].d([m5C])[sp].d(A)[sp].d(T)[sp].d(T)[sp].d(T)[sp].d(T)[sp].d([m5C])[sp].d(T)[sp].d(T)[sp].[moe](G)p.[moe]([m5C])p.[moe](A)[sp].[moe](G)}$$$$ (last 3' nucleoside missing)
